The record followed here is patent publication US4698352A, “4-oxo-1,4-dihydronicotinic acid derivatives, salts thereof, and antibacterial agents containing the same” (Toyama Chemical Co., Ltd., priority 1982, dated 1987).

Molecules are shown by their SMILES. Values after ≈ are worked out from the molar mass of the structure shown. Read-outs that look alike come from different tables or passages of the source.

Test in all cases: Antibacterial activity (MIC), agar dilution
What all share (format): cell-based

One test deals with Aci. antitratus A-6. Particulars: 20 h, Aci. antitratus A-6; 10^6 cells per ml; 37° C., 20 hours; read-out: MIC. An excerpt: (§1) The amount of bacteria inoculated was 10^4 cells per plate (10^6 cells per ml).
A further test deals with E. coli NIHJ JC-2. The settings on record: Escherichia coli, NIHJJC2, 20 h.
Description: as §1

The test system of another test is E. coli TK-111. Particulars: Escherichia coli, TK111, 20 h, E. coli TK-111; 10^6 cells per ml; 37° C., 20 hours; read-out: MIC.
Description: as §1

For another test, the system named is Ent. cloacae IID977. The settings on record: Enterobacter cloacae, IID977, 20 h.
Description: as §1

Another test deals with Kl. pneumoniae Y-41. Particulars: Klebsiella pneumoniae, Y41, 10^6 cells per ml, 37° C., 20 hours, read-out: MIC.
Description: as §1

The next test relates to Kl. pneumoniae Y-50. The settings on record: Klebsiella pneumoniae, Y50, 20 h, 10^6 cells per ml, 37° C., read-out: MIC.
Description: as §1

Another test has as its system Pro. mirabilis T-111. Particulars: Proteus mirabilis, 37° C.
Description: as §1

The next test deals with Pro. morganii T-216. Particulars: Morganella morganii, 37° C.
Description: as §1

The test system of another test is Pro. vulgaris GN3027. Particulars: Proteus vulgaris, GN3027, 20 h, Pro. vulgaris GN3027; 10^6 cells per ml; 37° C., 20 hours; read-out: MIC.
Description: as §1

The test system of a further test is Ps. aeruginosa IFO3445. The settings on record: Pseudomonas aeruginosa; Ps. aeruginosa IFO3445; 10^6 cells per ml; 37° C., 20 hours; read-out: MIC.
Description: as §1

A further test relates to Ps. aeruginosa S-68. Particulars: Pseudomonas aeruginosa, S68; Ps. aeruginosa S-68; 10^6 cells per ml; 37° C., 20 hours; read-out: MIC.
Description: as §1

Another test concerns St. aureus FDA209P. The settings on record: Staphylococcus aureus, FDA209P, 20 h.
Description: as §1

The test system of the next test is E. coli TK-3*. Particulars: Escherichia coli, 20 h.
Description: as §1
(§2) * Penicillinase-producing bacteria

The subject of another test is Kl. pneumoniae Y-4*. Particulars: Klebsiella pneumoniae, 20 h, Kl. pneumoniae Y-4, penicillinase-producing; 10^6 cells per ml; read-out: MIC.
Description: as §1, §2

A further test deals with Ps. aeruginosa GN3379*. The settings on record: Pseudomonas aeruginosa, 20 h; Ps. aeruginosa GN3379, penicillinase-producing; 10^6 cells per ml; read-out: MIC.
Description: as §1, §2

A further test relates to St. aureus F-137*. The settings on record: Staphylococcus aureus, 20 h.
Description: as §1, §2

In a further test the test system is E. coli GN5482**. The settings on record: Escherichia coli, 20 h; E. coli GN5482, cephalospolinase-producing; 10^6 cells per ml; read-out: MIC.
Description: as §1
(§3) ** Cephalospolinase-producing bacteria

In a further test the test system is Pro. vulgaris GN76**. Particulars: Proteus vulgaris.
Description: as §1, §3

A further test deals with Ps. aeruginosa GN918**. The settings on record: Pseudomonas aeruginosa, Ps. aeruginosa GN918, cephalospolinase-producing, 10^6 cells per ml.
Description: as §1, §3

Setting [1] is: Ent. cloacae IID977, 10^6 cells per ml, 37° C., 20 hours, read-out: MIC.
Setting [2] is: T111, 10^6 cells per ml, 20 hours, read-out: MIC.
Setting [3] is: T216, 10^6 cells per ml, 20 hours, read-out: MIC.
The mark [4] stands for this setting: E. coli TK-3, penicillinase-producing, 10^6 cells per ml, read-out: MIC.
Setting [5] is: 20 h, Pro. vulgaris GN76, cephalospolinase-producing, 10^6 cells per ml, read-out: MIC.
[6] abbreviates: E. coli NIHJ JC-2, 10^6 cells per ml, 37° C., 20 hours, read-out: MIC.
The mark [7] stands for this setting: St. aureus FDA209P, 10^6 cells per ml, 37° C., 20 hours, read-out: MIC.
Setting [8] is: St. aureus F-137, penicillinase-producing, 10^6 cells per ml, read-out: MIC.

As to `Cc1cc(O)ccc1-n1cc(C(=O)O)c(=O)cc1C1CC2C=CC1C2` (centres unmarked), the MIC in the test on Aci. antitratus A-6 was 6.25 µg/mL (≈ 18.5 µM); with E. coli NIHJ JC-2, 3.13 µg/mL (≈ 9.28 µM); in the test on E. coli TK-111, 1.56 µg/mL (≈ 4.62 µM); in the test on Ent. cloacae IID977 (setting [1]), 12.5 µg/mL (≈ 37.1 µM); in the test on Kl. pneumoniae Y-41, 25 µg/mL (≈ 74.1 µM); in the test with Kl. pneumoniae Y-50, 3.13 µg/mL (≈ 9.28 µM). Moreover, the MIC was 25 µg/mL (≈ 74.1 µM) in the test on Pro. mirabilis T-111 (setting [2]); 12.5 µg/mL (≈ 37.1 µM) in the test with Pro. morganii T-216 (setting [3]); 0.78 µg/mL (≈ 2.31 µM) in the test on Pro. vulgaris GN3027; over 100 µg/mL in the test with Ps. aeruginosa IFO3445; over 100 µg/mL in the test on Ps. aeruginosa S-68; 3.13 µg/mL (≈ 9.28 µM) against St. aureus FDA209P. The MIC in the test with E. coli TK-3* (setting [4]) was 12.5 µg/mL (≈ 37.1 µM); in the test on Kl. pneumoniae Y-4* it was 25 µg/mL (≈ 74.1 µM); in the test with Ps. aeruginosa GN3379*, over 100 µg/mL; against St. aureus F-137*, 3.13 µg/mL (≈ 9.28 µM); in the test on E. coli GN5482**, 1.56 µg/mL (≈ 4.62 µM); in the test with Pro. vulgaris GN76** (setting [5]), 6.25 µg/mL (≈ 18.5 µM). Further, in the test on Ps. aeruginosa GN918** (20 h, read-out: MIC), the MIC was found to be 50 µg/mL (≈ 148 µM).
`Cc1cc(O)ccc1-n1cc(C(=O)O)c(=O)cc1C1CCCC1`: the MIC in the test on Aci. antitratus A-6 worked out at 0.78 µg/mL (≈ 2.49 µM); in the test on E. coli NIHJ JC-2 (setting [6]), 0.78 µg/mL (≈ 2.49 µM); in the test on E. coli TK-111 it was 0.39 µg/mL (≈ 1.24 µM); with Ent. cloacae IID977 (setting [1]), 1.56 µg/mL (≈ 4.98 µM); in the test on Kl. pneumoniae Y-41 it was 3.13 µg/mL (≈ 9.99 µM); with Kl. pneumoniae Y-50 it was 0.78 µg/mL (≈ 2.49 µM). For the same compound, the MIC against Pro. mirabilis T-111 (T111, 20 h, 10^6 cells per ml) was 3.13 µg/mL (≈ 9.99 µM); in the test with Pro. morganii T-216 (T216, 20 h, 10^6 cells per ml), 3.13 µg/mL (≈ 9.99 µM); in the test on Pro. vulgaris GN3027, at most 0.05 µg/mL; in the test on Ps. aeruginosa IFO3445 it was 12.5 µg/mL (≈ 39.9 µM); in the test on Ps. aeruginosa S-68, 12.5 µg/mL (≈ 39.9 µM); with St. aureus FDA209P (setting [7]), 0.78 µg/mL (≈ 2.49 µM). The MIC in the test on E. coli TK-3* (setting [4]) came to 1.56 µg/mL (≈ 4.98 µM); with Kl. pneumoniae Y-4* it was 6.25 µg/mL (≈ 19.9 µM); in the test with Ps. aeruginosa GN3379*, 25 µg/mL (≈ 79.8 µM); in the test on St. aureus F-137* (setting [8]), 0.39 µg/mL (≈ 1.24 µM); in the test with E. coli GN5482**, 0.2 µg/mL (≈ 0.638 µM); with Pro. vulgaris GN76** (setting [5]), 0.78 µg/mL (≈ 2.49 µM). The compound further yielded an MIC in the test with Ps. aeruginosa GN918** (GN918, 20 h) of 3.13 µg/mL (≈ 9.99 µM).
`O=C(O)c1cn(-c2ccc(F)cc2)c(-c2ccc(N=Cc3ccc([N+](=O)[O-])o3)cc2)cc1=O`: the MIC with Aci. antitratus A-6 was found to be 3.13 µg/mL (≈ 7 µM); in the test on E. coli NIHJ JC-2, 1.56 µg/mL (≈ 3.49 µM); in the test on E. coli TK-111 it was 0.78 µg/mL (≈ 1.74 µM); with Ent. cloacae IID977, 6.25 µg/mL (≈ 14 µM); in the test with Kl. pneumoniae Y-41, 6.25 µg/mL (≈ 14 µM); in the test on Kl. pneumoniae Y-50, 1.56 µg/mL (≈ 3.49 µM). Further, the MIC with Pro. mirabilis T-111 (setting [2]) was 12.5 µg/mL (≈ 27.9 µM); in the test on Pro. morganii T-216 (setting [3]), 3.13 µg/mL (≈ 7 µM); with Pro. vulgaris GN3027, 0.39 µg/mL (≈ 0.872 µM); in the test with Ps. aeruginosa IFO3445, 25 µg/mL (≈ 55.9 µM); in the test with Ps. aeruginosa S-68, 25 µg/mL (≈ 55.9 µM); in the test with St. aureus FDA209P, 6.25 µg/mL (≈ 14 µM). Moreover, the MIC came to 3.13 µg/mL (≈ 7 µM) in the test with E. coli TK-3* (setting [4]); 25 µg/mL (≈ 55.9 µM) with Kl. pneumoniae Y-4*; 50 µg/mL (≈ 112 µM) in the test with Ps. aeruginosa GN3379*; 6.25 µg/mL (≈ 14 µM) against St. aureus F-137*; 0.39 µg/mL (≈ 0.872 µM) in the test on E. coli GN5482**; 1.56 µg/mL (≈ 3.49 µM) in the test with Pro. vulgaris GN76** (GN76, 20 h). The MIC in the test with Ps. aeruginosa GN918** (20 h, read-out: MIC) was determined as 25 µg/mL (≈ 55.9 µM).
As for `O=C(O)c1cn(-c2ccc(F)cc2)c(C=Cc2ccncc2)cc1=O`, the MIC worked out at 12.5 µg/mL (≈ 37.2 µM) in the test with Aci. antitratus A-6; 12.5 µg/mL (≈ 37.2 µM) in the test with E. coli NIHJ JC-2 (setting [6]); 0.39 µg/mL (≈ 1.16 µM) with E. coli TK-111; 3.13 µg/mL (≈ 9.31 µM) with Ent. cloacae IID977 (setting [1]); 6.25 µg/mL (≈ 18.6 µM) with Kl. pneumoniae Y-41; 0.78 µg/mL (≈ 2.32 µM) in the test on Kl. pneumoniae Y-50. In addition, the MIC with Pro. mirabilis T-111 (setting [2]) was found to be 12.5 µg/mL (≈ 37.2 µM); against Pro. morganii T-216 (T216, 20 h, 10^6 cells per ml), 6.25 µg/mL (≈ 18.6 µM); with Pro. vulgaris GN3027, 0.2 µg/mL (≈ 0.595 µM); in the test on Ps. aeruginosa IFO3445 it was 50 µg/mL (≈ 149 µM); in the test on Ps. aeruginosa S-68, 12.5 µg/mL (≈ 37.2 µM); with St. aureus FDA209P (setting [7]) it was 12.5 µg/mL (≈ 37.2 µM). In addition, the MIC was 1.56 µg/mL (≈ 4.64 µM) in the test on E. coli TK-3* (setting [4]); 6.25 µg/mL (≈ 18.6 µM) in the test with Kl. pneumoniae Y-4*; 25 µg/mL (≈ 74.3 µM) in the test with Ps. aeruginosa GN3379*; 12.5 µg/mL (≈ 37.2 µM) with St. aureus F-137* (setting [8]); 0.2 µg/mL (≈ 0.595 µM) in the test with E. coli GN5482**; 0.78 µg/mL (≈ 2.32 µM) with Pro. vulgaris GN76** (setting [5]). The MIC in the test with Ps. aeruginosa GN918** (20 h, read-out: MIC) turned out to be 25 µg/mL (≈ 74.3 µM).
For `Nc1ccc(-c2cc(=O)c(C(=O)O)cn2-c2ccc(O)cc2)cc1`, the MIC was found to be 25 µg/mL (≈ 77.6 µM) in the test with Aci. antitratus A-6; 3.13 µg/mL (≈ 9.71 µM) against E. coli NIHJ JC-2; 0.78 µg/mL (≈ 2.42 µM) in the test on E. coli TK-111; 12.5 µg/mL (≈ 38.8 µM) against Ent. cloacae IID977; 12.5 µg/mL (≈ 38.8 µM) in the test on Kl. pneumoniae Y-41; 3.13 µg/mL (≈ 9.71 µM) in the test with Kl. pneumoniae Y-50. In addition, the MIC in the test with Pro. mirabilis T-111 (setting [2]) was determined as 25 µg/mL (≈ 77.6 µM); in the test with Pro. morganii T-216 (T216, 20 h, 10^6 cells per ml) it was 3.13 µg/mL (≈ 9.71 µM); in the test with Pro. vulgaris GN3027, 0.39 µg/mL (≈ 1.21 µM); with Ps. aeruginosa IFO3445, 25 µg/mL (≈ 77.6 µM); in the test with Ps. aeruginosa S-68, 25 µg/mL (≈ 77.6 µM); against St. aureus FDA209P it was 3.13 µg/mL (≈ 9.71 µM). Further, the MIC came out at 3.13 µg/mL (≈ 9.71 µM) with E. coli TK-3*; 12.5 µg/mL (≈ 38.8 µM) with Kl. pneumoniae Y-4*; 25 µg/mL (≈ 77.6 µM) with Ps. aeruginosa GN3379*; 6.25 µg/mL (≈ 19.4 µM) in the test on St. aureus F-137* (setting [8]); 0.1 µg/mL (≈ 0.31 µM) in the test on E. coli GN5482**; 1.56 µg/mL (≈ 4.84 µM) in the test on Pro. vulgaris GN76** (setting [5]). The MIC in the test on Ps. aeruginosa GN918** (20 h, read-out: MIC) amounted to 25 µg/mL (≈ 77.6 µM).
